The values below are quoted from earlier work in patent publication US20190117606A1, “COMPOSITIONS COMPRISING L-THEANINE, PROANTHOCYANIDIN/S AND A CATECHIN AND USES THEREOF” (priority 2016, published 2019).

The conditions of this data set: in vivo.

Turning to `CCNC(=O)CC[C@H](N)C(=O)O` [L-theanine, γ-glutamylethylamide], the “Crossing of the blood-brain barrier” value is given as “known to cross the blood-brain barrier” and the “Time to peak concentrations after consumption” value is “about one”.
